Measured values: patent US12599617B2, “Methods of treating head and neck cancers with hemp extract” (Ecofibre USA Inc., priority 2021, dated 2026)

What was measured:
[1] = tested on: patient derived organoids; experiment: Response / % cell death of patient derived organoids; type: cell-based, human; conditions: for % Cell Death: patient derived organoids treated with the drug
Source text: A few of the above materials, as well as additional drugs were tried for response to patient derived organoids in Table 4, below, which details the % of cell death of the patient derived organoids, when treated with the relevant drug product.

[2] = tested on: human head and neck cancer organoids; experiment: Head and neck cancer organoid viability, cannabis extracts and paclitaxel alone or combined
[3] = tested on: grade 2 endometrial cancer organoids; experiment: Grade 2 endometrial cancer organoid viability, carboplatin alone or with cannabis extract; type: cell-based, human; conditions: carboplatin alone, 50 and 100 μm/mL
[4] = cited from earlier work
P-glycoprotein = P-glycoprotein (Homo sapiens, UniProt P08183); conditions: in vitro study; cited from earlier work
Chain of P-glycoprotein (P08183 whole entry): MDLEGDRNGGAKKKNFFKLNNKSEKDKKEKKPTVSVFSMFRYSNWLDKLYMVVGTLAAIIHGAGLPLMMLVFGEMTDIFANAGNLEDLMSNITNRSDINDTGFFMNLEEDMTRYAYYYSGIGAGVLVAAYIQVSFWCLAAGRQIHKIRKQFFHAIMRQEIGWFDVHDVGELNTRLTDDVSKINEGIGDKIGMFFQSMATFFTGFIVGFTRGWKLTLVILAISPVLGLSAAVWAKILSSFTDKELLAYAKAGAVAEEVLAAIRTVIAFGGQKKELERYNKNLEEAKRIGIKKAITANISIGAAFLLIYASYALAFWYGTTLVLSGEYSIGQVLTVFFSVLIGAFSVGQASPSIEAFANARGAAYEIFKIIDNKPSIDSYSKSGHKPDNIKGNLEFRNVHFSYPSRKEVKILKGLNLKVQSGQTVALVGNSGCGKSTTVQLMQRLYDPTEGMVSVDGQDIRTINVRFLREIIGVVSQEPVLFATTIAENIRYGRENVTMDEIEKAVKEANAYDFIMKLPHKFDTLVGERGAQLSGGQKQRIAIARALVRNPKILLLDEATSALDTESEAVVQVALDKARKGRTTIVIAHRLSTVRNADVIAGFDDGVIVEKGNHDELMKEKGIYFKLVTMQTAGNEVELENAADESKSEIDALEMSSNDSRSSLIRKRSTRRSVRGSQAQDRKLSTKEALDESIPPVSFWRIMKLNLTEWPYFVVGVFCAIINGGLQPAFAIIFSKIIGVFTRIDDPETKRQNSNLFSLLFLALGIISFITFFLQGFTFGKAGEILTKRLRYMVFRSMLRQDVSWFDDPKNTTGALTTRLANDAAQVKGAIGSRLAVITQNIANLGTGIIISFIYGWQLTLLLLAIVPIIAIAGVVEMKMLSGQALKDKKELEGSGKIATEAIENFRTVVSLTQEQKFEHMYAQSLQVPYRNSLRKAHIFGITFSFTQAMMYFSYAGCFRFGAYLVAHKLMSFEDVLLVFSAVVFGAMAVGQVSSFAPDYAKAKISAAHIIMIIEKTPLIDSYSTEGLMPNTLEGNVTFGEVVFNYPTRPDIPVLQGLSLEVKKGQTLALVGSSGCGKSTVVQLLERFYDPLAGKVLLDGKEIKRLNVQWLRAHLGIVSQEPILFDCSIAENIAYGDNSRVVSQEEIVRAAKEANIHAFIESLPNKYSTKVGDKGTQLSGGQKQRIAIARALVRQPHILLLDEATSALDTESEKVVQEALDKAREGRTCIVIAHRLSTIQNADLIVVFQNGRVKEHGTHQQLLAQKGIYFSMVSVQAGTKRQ

CYP2C19 enzymes = CYP2C19 enzymes (Homo sapiens, UniProt P33261); conditions: in vitro; cited from earlier work
Chain of CYP2C19 enzymes (P33261 whole entry): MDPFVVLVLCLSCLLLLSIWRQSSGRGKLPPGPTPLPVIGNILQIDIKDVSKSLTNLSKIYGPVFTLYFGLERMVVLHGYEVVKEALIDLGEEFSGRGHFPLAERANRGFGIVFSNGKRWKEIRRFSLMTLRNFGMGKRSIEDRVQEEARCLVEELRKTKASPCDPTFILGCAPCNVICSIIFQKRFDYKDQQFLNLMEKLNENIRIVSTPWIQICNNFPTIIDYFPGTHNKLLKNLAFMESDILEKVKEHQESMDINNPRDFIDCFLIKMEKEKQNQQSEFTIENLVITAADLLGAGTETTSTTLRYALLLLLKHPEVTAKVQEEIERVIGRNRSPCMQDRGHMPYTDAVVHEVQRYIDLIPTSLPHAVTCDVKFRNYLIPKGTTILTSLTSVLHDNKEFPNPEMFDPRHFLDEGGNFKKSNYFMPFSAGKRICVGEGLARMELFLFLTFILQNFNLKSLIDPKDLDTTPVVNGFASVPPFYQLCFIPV

[5] = tested on: patient derived endometrial cancer cells; experiment: Patient-derived xenograft (PDX) mouse tumor volume; type: in vivo, mice; conditions: paclitaxel only, 10 mg/kg, 21 days
Source text: All treatment group mice were kept alive for up to 10 weeks after drug injection or until the tumor volume grows bigger than 2500 mm^3.

Molecule | % Cell Death [1] | other results
N.N.[Cl][Pt][Cl] [Cisplatin] | 36% | –
C=C(C)[C@@H]1CCC(C)=C[C@H]1c1c(O)cc(CCCCC)c(C(=O)O)c1O [CBDA, cannabidiolic acid] | – | percent viability of head and neck cancer organoids ([2]; at least 15 μg/mL CBDA): below 10%
O=C1c2c(O)ccc(O)c2C(=O)c2c(NCCNCCO)ccc(NCCNCCO)c21 [Mitoxantrone] | 50% | –
COc1cc([C@@H]2c3cc4c(cc3[C@@H](O[C@@H]3O[C@@H]5CO[C@@H](C)O[C@H]5[C@H](O)[C@H]3O)[C@H]3COC(=O)[C@H]23)OCO4)cc(OC)c1O [Etoposide] | 33% | –
CO[C@H]1C(=O)[C@]2(C)[C@@H](OC)C[C@H]3OC[C@@]3(OC(C)=O)[C@H]2[C@H](OC(=O)c2ccccc2)[C@]2(O)C[C@H](OC(=O)[C@H](O)[C@@H](NC(=O)OC(C)(C)C)c3ccccc3)C(C)=C1C2(C)C [Cabazitaxel] | 37% | –
N.N.O=C([O-])C1(C(=O)[O-])CCC1.[Pt+2] [Carboplatin] | 30% | viability [3]: about 50%
COc1cccc2c1C(=O)c1c(O)c3c(c(O)c1C2=O)C[C@@](O)(C(=O)CO)C[C@@H]3O[C@H]1C[C@H](N)[C@H](O)[C@H](C)O1 [Doxorubicin] | 39% | –
Bleomycin | 53% | –
Cn1nnc2c(C(N)=O)ncn2c1=O [Temozolomide] | 40% | –
Nc1ccn([C@@H]2O[C@H](CO)[C@@H](O)C2(F)F)c(=O)n1 [Gemcitabine] | 56% | –
CN(C)/N=N/c1[nH]cnc1C(N)=O [Dacarbazine] | 32% | –
CCc1c2c(nc3ccc(OC(=O)N4CCC(N5CCCCC5)CC4)cc13)-c1cc3c(c(=O)n1C2)COC(=O)[C@]3(O)CC [Irinotecan] | 51% | –
C=C(C)[C@@H]1CCC(C)=C[C@H]1c1c(O)cc(CCCCC)cc1O [CBD isolate, cannabidiol] | – | percent viability of head and neck cancer organoids ([2]; 10 μg/mL cannabis extract): effective in reducing the viability of the head and neck cancer organoids significantly
CCC1=C[C@@H]2CN(C1)Cc1c([nH]c3ccccc13)[C@@](C(=O)OC)(c1cc3c(cc1OC)N(C)[C@H]1[C@@](O)(C(=O)OC)[C@H](OC(C)=O)[C@]4(CC)C=CCN5CC[C@]31[C@@H]54)C2 [Vinorelbine] | 45% | –
CC[C@]1(O)C[C@@H]2CN(CCc3c([nH]c4ccccc34)[C@@](C(=O)OC)(c3cc4c(cc3OC)N(C)[C@H]3[C@@](O)(C(=O)OC)[C@H](OC(C)=O)[C@]5(CC)C=CCN6CC[C@]43[C@@H]65)C2)C1 [Vinblastine] | 38% | –
N[C@@H](Cc1ccc(N(CCCl)CCCl)cc1)C(=O)O [Melphalan] | 40% | –
O=P1(N(CCCl)CCCl)NCCCO1 (stereo not drawn) [Cyclosphosphamide] | 32% | –
C=C(C)[C@@H]1CCC(C)=C[C@H]1c1c(O)cc(CCCCC)cc1O [CBD, cannabidiol] | – | organoid response ([1]; organoid of the chemoresistant endometrial cancer patient): significant response; effect on peak plasma concentrations of CBD ([4]; coadministration of rifampicin (a CYP3A4 inducer)): significantly reduced peak plasma concentrations; effect on peak plasma drug concentrations ([4]; coadministration of the CYP3A4 inhibitor ketoconazole): nearly doubled peak plasma drug concentrations; inhibition of P-glycoprotein-mediated drug transport (P-glycoprotein): significantly inhibits P-glycoprotein-mediated drug transport; inhibition of CYP2C19 (CYP2C19 enzymes): potent inhibitor of CYP2C19 enzymes
COc1cc2c(cc1O)CCN[C@]21CS[C@@H]2c3c(OC(C)=O)c(C)c4c(c3[C@H](COC1=O)N1[C@@H]2[C@H]2c3c(cc(C)c(OC)c3O)C[C@@H]([C@@H]1O)N2C)OCO4 [Trabectedine] | 32% | –
5-Fluorouaracil/Capecitabine | 61% | –
CCCCCc1cc(O)c2c(c1)OC(C)(C)[C@@H]1CCC(C)=C[C@@H]21 [THC, Δ-9-tetrahydrocannabinol] | – | onset to reach peak concentration ([4]; oral THC formulations): ~120 min
CC(=O)O[C@H]1C(=O)[C@@]2(C)[C@H]([C@H](OC(=O)c3ccccc3)[C@]3(O)C[C@H](OC(=O)[C@H](O)[C@@H](NC(=O)c4ccccc4)c4ccccc4)C(C)=C1C3(C)C)[C@]1(OC(C)=O)CO[C@@H]1C[C@@H]2O [Paclitaxel] | 39% | organoid viability ([2]; human, 14 days, 16 nm/mL): around 60%; organoid viability ([2]; paclitaxel alone, 4 nm/mL): virtually no impact on the organoid viability; effect on tumor volume [5]: in essence ineffective after an initial reduction at day 10
